≈ marks a conversion by molar mass, not a printed value. Where two headings read alike, the source gives them in different places. Residues, ends and D or L forms follow the SMILES beside them. No end group written: not given here.
Columns and labels:
[1] = test system: E. coli (ATCC 25922); format: cell-based, Escherichia coli
Method in brief: (§1)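 Peptide fractions were incubated with actively growing bacteria in Mueller Hinton medium at a starting concentration of 3×10^4 cells per ml. Growth was monitored continuously in a Bioscreen C reader; polymyxin B served as reference.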

[2] = test system: Pseudomonas aeruginosa; format: cell-based
Method in brief: as §1

[3] = test system: S. aureus (ATCC 9144); format: cell-based, Staphylococcus aureus
Method in brief: as §1

[4] = test system: Botrytis cinerea 101; details: 48 h
Method in brief: (§2)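 Broth microdilution in half-strength potato dextrose broth, final 2×10^5 spores per ml, peptides in two-fold dilutions from 50 μM to 0.1 μM final. Incubated in the dark without shaking at 25° C. (37° C. for C. albicans) for 48 h; MIC is lowest concentration giving 50% inhibition of visible growth, scored microscopically.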

[5] = test system: Candida albicans (ATCC 10231)
Method in brief: as §2

[6] = test system: Saccharomyces cerevisiae; details: 48 h
Method in brief: as §2

[7] = test system: murine colon carcinoma cell line CT26; format: cell-based; details: 4 h
Protocol: The cytotoxic effects of the peptides on different human tumour cells were measured using the MTT colorimetric assay (Mosmann, 1983). MIT (3-(4-5-dimethylthiazol-2-yl)-2,5-diphenyl tetrazolium bromide) is a soluble tetrazolium salt yielding a yellow solution when prepared in media or salt solutions lacking phenol red. Dissolved MIT is converted to an insoluble purple formazan by cleavage of the tetrazolium ring by dehydrogenase enzymes. This water insoluble formazan can be solubilized using isopropanol or other solvents and the dissolved material is measured spectrophotometrically. The absorbance was measured as a function of concentration of converted dye. The conversion of the soluble dye to the insoluble purple formazan is utilized in assays for measurement of cell proliferation. […] We used this assay to measure the degree of cell death caused by the peptides.
CT26 and A20 were maintained in RPMI-1640 medium supplemented with 10% heat inactivated FBS and 1% L-glutamine in a humidified atmosphere of 5% CO2 at 37° C. The human embryonic fibroblast cell line, MRC-5, was cultured as a monolayer in MEM medium, under the same conditions as described for the tumour cell lines. CT26 and MRC-5 cells to be used in the assay were grown to a minimum of 75% confluency, trypsinated and split to single cell suspension, counted and centrifuged at 1500 rpm for 7 min. The cell pellet was resuspended to a concentration of 1-2×10^5 cells/ml in RPMI-1640 medium without FBS and L-glutamine-L-alanine (assay-medium). The A20 cells were grown in suspension and adjusted to a concentration of 6×10^5 cells/ml in assay medium. All cell lines were routinely tested for mycoplasma infection using a PCR-based mycoplasma detection kit (MycoSensor PCR Assay Kit, Stratagene), following the supplier's instructions. All cell lines were mycoplasma free.
The cytotoxicity was measured using the MTT method (Mosmann, 1983), with minor modifications. The adherent cells (CT26 and MRC-5) were applied in 96-well culture plates in a volume of 100 μl assay medium and incubated at 37° C. for 24 hours. The A20 cells were applied to the microtiter plates just prior to testing. The medium was removed and the cells were treated with 100 μl of peptide solution (concentrations ranging from 0 to 400 μg/ml), diluted in serum-free medium, and the plates were incubated at 37° C. for 4 hours. Cells treated with Triton X-100 (1%) were used as positive control (100% killing) whereas cells plus medium only were used as negative control. Following the incubation period, 10 and 20 μl MTT (5 mg/ml, dissolved in PBS) were added to each well in the adherent cells (CT26 and MRC-5) and the A20 cells, respectively. After further incubation for 2 hours, a volume of 70 μl of the supernatant was removed and 100 μl acid alcohol (0.04 M HCl in isopropanol) added to each well in the adherent cell lines. For the cells grown in suspension (A20), a volume of 130 μl of the supernatant was removed and 100 μl acid alcohol was added. The plates were placed on a shaker for 1 hour at room temperature and read spectrophotometrically at 590 nm in a microtiter plate reader (Thermomax Molecular devices, New Jersey, USA). Cell survival (%, averaging at least 2 parallels) and IC50 values were estimated as described above.

[8] = yeast, more than 50% inhibition of visible growth, 48 h, 37° C.
[9] = yeast, more than 50% inhibition of visible growth

CC[C@H](C)[C@H](NC(=O)CNC(=O)[C@H](CO)NC(=O)[C@H](CCCCN)NC(=O)[C@@H](NC(=O)[C@H](C)NC(=O)[C@H](Cc1c[nH]cn1)NC(=O)[C@H](CO)NC(=O)[C@@H](NC(=O)[C@H](CCCCN)NC(=O)[C@H](Cc1c[nH]cn1)NC(=O)[C@H](Cc1ccccc1)NC(=O)[C@@H](NC(=O)[C@H](CCCCN)NC(=O)[C@H](CCCCN)NC(=O)[C@H](Cc1ccccc1)NC(=O)C(Cc1c[nH]c2ccc(Br)cc12)NC(=O)CN)[C@@H](C)O)C(C)C)C(C)C)C(=O)N[C@@H](Cc1c[nH]cn1)C(=O)N[C@@H](C)C(=O)NCC(=O)N[C@@H](CCC(N)=O)C(=O)N[C@@H](CCCNC(=N)N)C(=O)NCC(=O)N[C@@H](CS)C(=O)N[C@@H](CO)C(=O)N[C@@H](C)C(=O)N[C@@H](CC(C)C)C(=O)NCC(=O)N[C@@H](Cc1ccccc1)C(=O)O (stereo partly drawn) [P17 HC-Br] (HELM PEPTIDE1{G.[O=C(C(Cc1c[nH]c2ccc(Br)cc12)N[*:1])[*:2]].F.K.K.T.F.H.K.V.S.H.A.V.K.S.G.I.H.A.G.Q.R.G.C.S.A.L.G.F}$$$$V2.0)
Minimal inhibitory concentration, E. coli [1]: 1.56 µM (≈ 5.18 µg/mL)
Minimal inhibitory concentration, P. aeruginosa [2]: 3.12 µM (≈ 10.4 µg/mL)
Minimal inhibitory concentration, S. aureus ([3]; 37° C.): 6.25 µM (≈ 20.8 µg/mL)
Minimal inhibitory concentration, S. aureus ([3]; ATCC 9144): 1.56 µM (≈ 5.18 µg/mL)
Minimal inhibitory concentration (MIC), Botrytis cinerea [4]: 25 µM (≈ 83 µg/mL)
Minimal inhibitory concentration (MIC), Candida albicans [5, 8]: 6.25 µM (≈ 20.8 µg/mL)
Minimal inhibitory concentration (MIC), Saccharomyces cerevisiae [6, 9]: 6.25 µM (≈ 20.8 µg/mL)
IC50 [7]: 33.1 µM

CC[C@H](C)[C@H](NC(=O)CNC(=O)[C@H](CO)NC(=O)[C@H](CCCCN)NC(=O)[C@@H](NC(=O)[C@H](C)NC(=O)[C@H](Cc1c[nH]cn1)NC(=O)[C@H](CO)NC(=O)[C@@H](NC(=O)[C@H](CCCCN)NC(=O)[C@H](Cc1c[nH]cn1)NC(=O)[C@H](Cc1ccccc1)NC(=O)[C@@H](NC(=O)[C@H](CCCCN)NC(=O)[C@H](CCCCN)NC(=O)[C@H](Cc1ccccc1)NC(=O)C(Cc1c[nH]c2ccc(Br)cc12)NC(=O)CN)[C@@H](C)O)C(C)C)C(C)C)C(=O)N[C@@H](Cc1c[nH]cn1)C(=O)N[C@@H](C)C(=O)O (stereo partly drawn) [P17 HC-Br (1-20)] (HELM PEPTIDE1{G.[O=C(C(Cc1c[nH]c2ccc(Br)cc12)N[*:1])[*:2]].F.K.K.T.F.H.K.V.S.H.A.V.K.S.G.I.H.A}$$$$V2.0; N-terminus and C-terminus assumed)
Minimal inhibitory concentration, E. coli [1]: 6.25 µM (≈ 14.7 µg/mL)
Minimal inhibitory concentration, P. aeruginosa [2]: 6.25 µM (≈ 14.7 µg/mL)
Minimal inhibitory concentration, S. aureus ([3]; ATCC 9144): 100 µM (≈ 234 µg/mL)
Minimal inhibitory concentration (MIC), Botrytis cinerea [4]: 50 µM (≈ 117 µg/mL)
Minimal inhibitory concentration (MIC), Candida albicans ([5]; ATCC 10231, 48 h): 6.25 µM (≈ 14.7 µg/mL)
Minimal inhibitory concentration (MIC), Saccharomyces cerevisiae [6]: 12.5 µM (≈ 29.3 µg/mL)
IC50 [7]: 59.7 µM

GWFKKTFHKVSHAVKSGIHAGQRGCSALGF [P17 HC]
Minimal inhibitory concentration, E. coli [1]: 1.56 µM
Minimal inhibitory concentration, P. aeruginosa [2]: 3.12 µM
Minimal inhibitory concentration (MIC), Botrytis cinerea [4]: 50 µM
Minimal inhibitory concentration (MIC), Candida albicans [5, 8]: 6.25 µM
Minimal inhibitory concentration (MIC), Saccharomyces cerevisiae [6, 9]: 6.25 µM
IC50 [7]: 20.4 µM

GWFKKTFHKVSHAVKSGIHA [P17 HC (1-20)]
Minimal inhibitory concentration, E. coli [1]: 6.25 µM
Minimal inhibitory concentration, P. aeruginosa [2]: 6.25 µM
Minimal inhibitory concentration, S. aureus ([3]; ATCC 9144): 100 µM
Minimal inhibitory concentration (MIC), Botrytis cinerea [4]: 100 µM
Minimal inhibitory concentration (MIC), Candida albicans ([5]; ATCC 10231, 48 h): 6.25 µM
Minimal inhibitory concentration (MIC), Saccharomyces cerevisiae [6]: 12.5 µM
